This is an account of results in patent US20030228581A1, “Diagnosis and treatment for late onset neurodegenerative disorder” (priority 2002, published 2003).

Test [1] has as its system Hq mutant and wild type granule cells. Further details: dose or concentration left out as unconfirmed. The following applies: 24 hours.
Test [2] concerns mutant and wildtype embryonic cortical cells. As to conditions: hydrogen peroxide for 24 hours, any peroxide concentration.
Protocol: To determine if increased peroxide sensitivity due to loss of wild-type levels of AIF is cell-specific, primary cultures of mutant and wildtype embryonic cortical cells were treated under the identical conditions used for granule cell cultures.
Test [3] deals with primary neuronal granule cell cultures from Hq mutant mice. As to conditions: 20 and 50 mM hydrogen peroxide, 5 hours, PI staining. As to the method: To determine if decrease in AIF levels leads to increased sensitivity to exogenous peroxides, primary neuronal granule cell cultures from Hq mutant mice were treated with increasing doses of hydrogen peroxide (0, 5, 20, 50 mM) for 5 hours and then stained with propidium iodide (PI) to identify apoptotic cells.

Test [4] has the same test system. Kind of test: Glutamate sensitivity of primary granule cell cultures. It is filed as cell-based, mouse. Set-up: unit of the concentration uncertain. The text has this: Low doses of glutamate cause neuronal excitotoxicity via NMDA receptors, while higher doses of glutamate trigger intracellular oxidative stress through the release of endogenous peroxides.

For the molecule `CN[C@@H]1C[C@H]2O[C@@](C)([C@@H]1OC)n1c3ccccc3c3c4c(c5c6ccccc6n2c5c31)C(=O)NC4` [staurosporine], the “cell death, Hq mutant versus wild type granule cells” value in test [1] is listed as “no significant difference in cell death”. Turning to `OO` [hydrogen peroxide], the “viability, mutant versus wild type cortical cells” value in test [2] is “no difference in viability”. In addition, in test [3], the “cell death, Hq mutant versus wild-type cultures” value is given as “Significantly more cell death”. As to `N[C@@H](CCC(=O)O)C(=O)O` [glutamate], in test [4] (higher doses of glutamate (2000 (unit uncertain))), the “Hq mutant granule cell death” value is recorded as “significant increases in Hq mutant granule cell death”. In test [4] (low concentrations of glutamate (100 (unit uncertain))), the “cell viability, mutant versus wild type granule cells” value is on record as “Cell viability was similar”. Take `COc1cc([C@@H]2c3cc4c(cc3[C@@H](O[C@@H]3O[C@@H]5CO[C@@H](C)O[C@H]5[C@H](O)[C@H]3O)[C@H]3COC(=O)[C@H]23)OCO4)cc(OC)c1O` [etoposide]: the “cell death, Hq mutant versus wild type granule cells” value in test [1] is recorded as “no significant difference in cell death”.
